# Calls of active or inactive are those of the source. The calls are words filed in the database; no cut-off is given here.
# Legend:
# Hep 3B2 [1] = assay: Induction of apoptosis in human Hep3B cells assessed as necrotic cells at 10 nM incubated for 48 hrs in presence of gamabufotalin by Annexin V-FITC/PI staining based flow cytometry method (reference value: 1.2%); assay type: functional
# Huh-7 [2] = assay: Induction of apoptosis in human Huh-7 cells assessed as late apoptotic cells at 10 nM incubated for 48 hrs by Annexin V-FITC/PI staining based flow cytometry method (reference value: 4.7%); assay type: functional
# Hep 3B2 [3] = assay: Induction of apoptosis in human Hep3B cells assessed as decrease in bcl-2 level at 10 nM incubated for 48 hrs in presence of gamabufotalin by immunoblot analysis; assay type: functional, cell-based
# Huh-7 [4] = assay: Induction of apoptosis in human Huh-7 cells assessed as increase in PARP level at 10 nM incubated for 48 hrs in presence of gamabufotalin by immunoblot analysis; assay type: functional, cell-based
# Huh-7 [5] = assay: Induction of apoptosis in human Huh-7 cells assessed as increase in cleaved caspase-3 level at 10 nM incubated for 48 hrs in presence of gamabufotalin by immunoblot analysis; assay type: functional, cell-based
# Huh-7 [6] = assay: Induction of apoptosis in human Huh-7 cells assessed as increase in caspase-3 level at 10 nM incubated for 48 hrs in presence of gamabufotalin by immunoblot analysis; assay type: functional, cell-based
# Hep 3B2 [7] = assay: Induction of autophagy in human Hep3B cells assessed as rescue of ULK1 phosphorylation level at upto 10 nM incubated for 48 hrs in presence of gamabufotalin by immunoblot method; assay type: functional, cell-based
# Huh-7 [8] = assay: Induction of autophagy in human Huh-7 cells assessed as rescue of ULK1 phosphorylation level at upto 10 nM incubated for 48 hrs in presence of gamabufotalin by immunoblot method; assay type: functional, cell-based
# Huh-7 [9] = assay: Induction of morphological changes in human Huh-7 cells assessed as adherent cells at upto 25 nM incubated for 48 hrs by bright field imaging analysis; assay type: functional, cell-based
# Hep 3B2 [10] = assay: Induction of apoptosis in human Hep3B cells assessed as necrotic cells at 20 nM incubated for 48 hrs by Annexin V-FITC/PI staining based flow cytometry method (reference value: 0.2%); assay type: functional
# Huh-7 [11] = assay: Induction of apoptosis in human Huh-7 cells assessed as early apoptotic cells at 15 nM incubated for 48 hrs by Annexin V-FITC/PI staining based flow cytometry method (reference value: 1.7%); assay type: functional
# Huh-7 [12] = assay: Induction of apoptosis in human Huh-7 cells assessed as late apoptotic cells at 15 nM incubated for 48 hrs by Annexin V-FITC/PI staining based flow cytometry method (reference value: 2.2%); assay type: functional
# Huh-7 [13] = assay: Induction of apoptosis in human Huh-7 cells assessed as late apoptotic cells at 25 nM incubated for 48 hrs by Annexin V-FITC/PI staining based flow cytometry method (reference value: 2.2%); assay type: functional
# Hep 3B2 [14] = assay: Induction of apoptosis in human Hep3B cells assessed as […] level at upto 25 nM incubated for 48 hrs by Western blot analysis; assay type: functional, cell-based
# Hep 3B2 [15] = assay: Induction of apoptosis in human Hep3B cells assessed as increase in PARP expression at upto 25 nM incubated for 48 hrs by Western blot analysis; assay type: functional, cell-based
# Hep 3B2 [16] = assay: Induction of apoptosis in human Hep3B cells assessed as increase in cleaved PARP expression at upto 25 nM incubated for 48 hrs by Western blot analysis; assay type: functional, cell-based
# Hep 3B2 [17] = assay: Induction of apoptosis in human Hep3B cells assessed as increase in caspase-3 expression at upto 25 nM incubated for 48 hrs by Western blot analysis; assay type: functional, cell-based
# Huh-7 [18] = assay: Induction of apoptosis in human Huh-7 cells assessed as increase in caspase-3 expression at upto 25 nM incubated for 48 hrs by Western blot analysis; assay type: functional, cell-based
# Hep 3B2 [19] = assay: Induction of apoptosis in human Hep3B cells assessed as early apoptotic cells at 25 nM measured after 48 hrs by annexin V-FITC/Propidium iodide staining based flow cytometric analysis (reference value: 1.6%); assay type: functional
# Hep 3B2 [20] = assay: Induction of autophagic flux in human Hep3B cells assessed as rescue of LC3-I accumulation at 25 uM incubated for 48 hrs in presence of chloroquine by Western blot analysis; assay type: functional, cell-based
# Hep 3B2 [21] = assay: Induction of apoptosis in human Hep3B cells assessed as increase in cleaved PARP level at 25 nM incubated for 48 hrs in presence of chloroquine by immunoblot analysis; assay type: functional, cell-based
# Huh-7 [22] = assay: Induction of apoptosis in human Huh-7 cells assessed as increase in PARP level at 25 nM incubated for 48 hrs in presence of chloroquine by immunoblot analysis; assay type: functional, cell-based
# Huh-7 [23] = assay: Induction of apoptosis in human Huh-7 cells assessed as viable cells at 25 nM incubated for 48 hrs by Annexin V-FITC/PI staining based flow cytometry method (reference value: 90.0%); assay type: functional; conditions: read-out: Activity
# Huh-7 [24] = assay: Induction of apoptosis in human Huh-7 cells assessed as necrotic cells at 25 nM incubated for 48 hrs by Annexin V-FITC/PI staining based flow cytometry method (reference value: 1.9%); assay type: functional
# Hep 3B2 [25] = assay: Induction of apoptosis in human Hep3B cells assessed as upregulation of cleaved PARP level […] incubated for 48 hrs in presence of 4,6-dimorpholino-N-(4-nitrophenyl)-1,3,5-triazin-2-amine by immunoblot analysis; assay type: functional, cell-based
# Hep 3B2 [26] = assay: Induction of apoptosis in human Hep3B cells assessed as upregulation of cleaved caspase-3 level […] incubated for 48 hrs in presence of 4,6-dimorpholino-N-(4-nitrophenyl)-1,3,5-triazin-2-amine by immunoblot analysis; assay type: functional, cell-based
# Hep 3B2 [27] = assay: Induction of autophagy in human Hep3B cells assessed as restoration of ULK1 phosphorylation expression at 25 uM incubated for 48 hrs in presence of 4,6-dimorpholino-N-(4-nitrophenyl)-1,3,5-triazin-2-amine by immunoblot analysis; assay type: functional, cell-based
# Hep 3B2 [28] = assay: Induction of autophagy in human Hep3B cells assessed as upregulation of p62 at 25 uM incubated for 48 hrs in presence of 4,6-dimorpholino-N-(4-nitrophenyl)-1,3,5-triazin-2-amine by immunoblot analysis; assay type: functional, cell-based
# Hep 3B2 [29] = assay: Induction of autophagy in human Hep3B cells assessed as downregulation of LC3II/LC3I ratio at 25 uM incubated for 48 hrs in presence of 4,6-dimorpholino-N-(4-nitrophenyl)-1,3,5-triazin-2-amine by immunoblot analysis; assay type: functional, cell-based
# Huh-7 [30] = assay: Induction of autophagic flux in human Huh-7 cells harbouring mCherry-egfp-LC3 assessed as reduction in number of yellow puncta ratio at 25 nM incubated for 15 mins in presence of chloroquine by laser scanning confocal microscopic analysis; assay type: functional, cell-based
# Huh-7 [31] = assay: Induction of autophagic flux in human Huh-7 cells harbouring mCherry-egfp-LC3 assessed as reduction in number of red puncta ratio at 25 nM incubated for 15 mins in presence of chloroquine by laser scanning confocal microscopic analysis; assay type: functional, cell-based
# Hep 3B2 [32] = assay: Antitumor activity against human Hep3B cells xenografted in nude mouse model assessed as decrease in tumor weight at 5 mg/kg,ip administered every second day for 3 weeks by vernier caliper method; assay type: functional, organism-based
# Hep 3B2 [33] = assay: Antitumor activity against human Hep3B cells xenografted in nude mouse model assessed as upregulation of LC3 II expression at 5 mg/kg,ip administered every second day for 3 weeks by Western blot analysis; assay type: functional, organism-based
# [34] = Toxicity in mouse assessed as effect on serum ALT level at 5 mg/kg,ip administered every second day for 3 weeks by H and E staining based microscopic method; assay type: organism-based; conditions: in vivo, 504 h
smiles,measurement,setting,value
CCN(CC)CCCC(C)Nc1ccnc2cc(Cl)ccc12 (centres undefined) [CHLOROQUINE],Activity,Hep 3B2 [1],0.8%
same,Activity,Huh-7 [2],4.9%
same,Activity,Hep 3B2 [3],Active
same,Activity,Huh-7 [4],Active
same,Activity,Huh-7 [5],Active
same,Activity,Huh-7 [6],Active
same,Activity,Hep 3B2 [7],Active
same,Activity,Huh-7 [8],Active
C[C@]12CC[C@H](O)C[C@H]1CC[C@@H]1[C@@H]2[C@H](O)C[C@]2(C)[C@@H](c3ccc(=O)oc3)CC[C@]12O [GAMABUFOTALIN],Activity,Huh-7 [9],Active
same,Activity,Hep 3B2 [10],0.3%
same,Activity,Huh-7 [11],4%
same,Activity,Huh-7 [12],24.4%
same,Activity,Huh-7 [13],31.1%
same,Activity,Hep 3B2 [14],Active
same,Activity,Hep 3B2 [15],Active
same,Activity,Hep 3B2 [16],Active
same,Activity,Hep 3B2 [17],Active
same,Activity,Huh-7 [18],Active
same,Activity,Hep 3B2 [19],6.6%
same,Activity,Hep 3B2 [20],Active
same,Activity,Hep 3B2 [21],Active
same,Activity,Huh-7 [22],Active
same,viability at 0.025 µM,Huh-7 [23],81.5%
same,Activity,Huh-7 [24],2.1%
same,Activity,Hep 3B2 [25],Active
same,Activity,Hep 3B2 [26],Active
same,Activity,Hep 3B2 [27],Active
same,Activity,Hep 3B2 [28],Active
same,Activity,Hep 3B2 [29],Active
same,Activity,Huh-7 [30],Active
same,Activity,Huh-7 [31],Active
same,Activity,Hep 3B2 [32],Active
same,Activity,Hep 3B2 [33],Active
same,Activity,[34],Non-Toxic

# — ChEMBL document CHEMBL5257089, “Gamabufotalin Induces Apoptosis and Cytoprotective Autophagy through the mTOR Signaling Pathway in Hepatocellular Carcinoma” (J Nat Prod, 2023)
